What all share (type): in vivo
Assay [1] relates to VERPE: bird's-eye speedwell (veronica persica). In words: Post-emergent Test III, herbicidal activity in wheat and barley. The note with it: for GR50 VERPE: dose for 50 percent growth reduction; for GR50 VERPE / GR80 VERPE: probit analysis; for GR80 VERPE: dose for 80 percent growth reduction; for pest or weed control at 35 g/ha: 35 g ai/ha; for pest or weed control at 70 g/ha: 70 g ai/ha. The essentials:
(§1)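 GR20, GR50, GR80 and GR90 come from probit analysis of visual injury scores (0 = none, 100 = complete kill) taken 21 d after treatment. Foliar application was by track sprayer delivering 187 L/ha at five rates, from high down to 1/16×, onto greenhouse plants at the 2–3 leaf stage, with solvent-blank controls.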

The subject of a further assay is LAMSS. Described as above. The note with it: Table 8, 21 d; for GR50 LAMSS: dose for 50 percent growth reduction; for GR50 LAMSS / GR80 LAMSS: probit analysis; for GR80 LAMSS: dose for 80 percent growth reduction; for pest or weed control at 35 g/ha: 35 g ai/ha; for pest or weed control at 70 g/ha: 70 g ai/ha. In short, it runs like this: as §1
Assay [2] concerns ECHCG: barnyardgrass (Echinochloa crus-galli). In words: Pre-emergent Test I herbicidal activity. The note with it: pre-emergence, 336 h, read-out: Visual Growth Reduction (%) 14 Days After Application, ECHCG. The procedure: (§2) Pre-emergent Test I Seeds of test species were planted into round plastic pots (5-inch diameter) containing sandy loam soil. After planting, all pots were sub-irrigated 16 h prior to compound application. Compounds were dissolved in a 97:3 v/v (volume/volume) mixture of acetone and dimethyl sulfoxide (DMSO) and diluted to the appropriate concentration in a final application solution containing water, acetone, isopropanol, DMSO and Agri-dex (crop oil concentrate) in a 59:23:15:1.0:1.5 v/v ratio and 0.02% w/v (weight/volume) of Triton X-155 to obtain the spray solution containing the highest application rate. Additional application rates were obtained by serial dilution of the high rate solution with the above application solution. Formulated compound (2.7 mL) was applied pipetted evenly over the soil surface followed by incorporation with water (15 mL). Following treatment, pots were returned to the greenhouse for the duration of the experiment. The greenhouse was programmed for an approximate 15 h photoperiod which was maintained at about 23-29° C. during the day and 22-28° C. during the night. Nutrients and water were added on a regular basis through surface irrigation and supplemental lighting was provided with overhead metal halide 1000-Watt lamps as necessary. Herbicidal effect ratings were obtained 14 days after treatment. All evaluations were made relative to appropriate controls on a scale of 0 to 100 where 0 represents no herbicidal effect and 100 represents plant death or lack of emergence from the soil.

Assay [3] has as its system HELAN: sunflower (Helianthus annuus). In words: Pre-emergent Test I herbicidal activity. The settings on record: pre-emergence, 336 h, read-out: Visual Growth Reduction (%) 14 Days After Application, HELAN. The procedure: as §2
Assay [4] relates to SETFA: giant foxtail (Setaria faberi). In words: Pre-emergent Test I herbicidal activity. The settings on record: pre-emergence, 336 h, read-out: Visual Growth Reduction (%) 14 Days After Application, SETFA. The procedure: as §2
For assay [5], the system named is IPOHE: ivyleaf morningglory (Ipomoea hederecea). The assay is described as follows: Pre-emergent Test I herbicidal activity. The note with it: pre-emergence, 336 h, read-out: Visual Growth Reduction (%) 14 Days After Application, IPOHE. The procedure:
as §2

Where [6] appears, read: Veronica persica, post-emergence, 504 h, Table 8, post-emergent, 21 d, read-out: Visual Growth Reduction (%) 21 Days After Application VERPE.
[7] abbreviates: post-emergence, 504 h, post-emergent, read-out: Visual Growth Reduction (%) 21 Days After Application LAMSS.
Setting [8] is: Veronica persica, post-emergence, 504 h, 21 days after application, read-out: Visual Gorowth Reduction (%) 21 days After Application VERPE.

Read-outs that look alike come from different tables or passages of the source.

As to `COC(=O)c1nc(-c2ccc(I)c(F)c2)c(C)c(N)c1Cl` [Compound 79, Methyl 4-amino-3-chloro-6-(3-fluoro-4-iodophenyl)-5-methylpicolinate], in assay [1] (Table 8, 21 d), the “GR50 VERPE” value is 2 g ai/ha and the “GR80 VERPE” value is listed as 37 g ai/ha. In assay [1] (setting [6]), the pest or weed control at 35 g/ha lay within 75 to 84% and the pest or weed control at 70 g/ha was in the range of 85 to 94%. Further, in the assay on LAMSS, the “GR50 LAMSS” value was 27 g ai/ha and the “GR80 LAMSS” value is reported as 72 g ai/ha. In the assay with LAMSS (setting [7]), the pest or weed control at 35 g/ha is 60 to 74% and the pest or weed control at 70 g/ha was 60 to 74%.
Take `Nc1c(Cl)c(C(=O)O)nc(-c2ccc(I)c(F)c2)c1Cl` [Compound 145, 4-Amino-3,5-dichloro-6-(3-fluoro-4-iodophenyl)picolinic acid]: in assay [1] (Table 8, 21 d), the “GR50 VERPE” value came out at 1 g ai/ha and the “GR80 VERPE” value worked out at 10 g ai/ha. Further, in assay [1] (setting [6]), the pest or weed control at 35 g/ha was in the range of 85 to 94% and the pest or weed control at 70 g/ha was 85 to 94%. The pest or weed control at 140 g/ha in assay [1] (Veronica persica, post-emergence, 504 h, Table 8, 140 g ai/ha, post-emergent, 21 d, read-out: Visual Growth Reduction (%) 21 Days After Application VERPE) lay in the range of 95 to 100%. Further, in the assay on LAMSS, the “GR50 LAMSS” value amounted to 4 g ai/ha and the “GR80 LAMSS” value came to 13 g ai/ha. Moreover, in the assay with LAMSS (setting [7]), the pest or weed control at 35 g/ha lay within 95 to 100% and the pest or weed control at 70 g/ha fell in the range of 95 to 100%. In addition, the pest or weed control at 140 g/ha in the assay with LAMSS (post-emergence, 504 h, 140 g ai/ha, post-emergent, read-out: Visual Growth Reduction (%) 21 Days After Application LAMSS) fell in the range of 95 to 100%.
With `Nc1cc(-c2cc(F)c(Br)cc2F)nc(C(=O)O)c1Cl` [Compound 3], in assay [1] (Table 8, 21 d), the “GR50 VERPE” value amounted to 34 g ai/ha and the “GR80 VERPE” value was found to be 126 g ai/ha. Moreover, in assay [1] (setting [6]), the pest or weed control at 35 g/ha was in the range of 45 to 59% and the pest or weed control at 70 g/ha was 60 to 74%. Moreover, in the assay with LAMSS, the “GR50 LAMSS” value was 1 g ai/ha and the “GR80 LAMSS” value amounted to 1 g ai/ha. Also, in the assay on LAMSS (setting [7]), the pest or weed control at 35 g/ha lay in the range of 95 to 100% and the pest or weed control at 70 g/ha was 95 to 100%.
Regarding `Nc1c(F)c(-c2cc(F)c(I)cc2F)nc(C(=O)O)c1Cl` [Compound 69], in assay [1] (setting [8]), the pest or weed control at 35 g/ha lay within 85 to 94% and the pest or weed control at 70 g/ha was in the range of 95 to 100%. Moreover, in assay [1] (21 days after application), the “GR50 VERPE” value was 1 g ai/ha and the “GR80 VERPE” value amounted to 4 g ai/ha.
In the case of `Nc1cc(-c2ccc(I)cc2F)nc(C(=O)O)c1Cl` [Compound 124], in assay [1] (Table 8, 21 d), the “GR50 VERPE” value is recorded as 20 g ai/ha and the “GR80 VERPE” value is 39 g ai/ha. Moreover, in assay [1] (setting [6]), the pest or weed control at 35 g/ha fell in the range of 75 to 84% and the pest or weed control at 70 g/ha lay within 85 to 94%. Moreover, in the assay on LAMSS, the “GR50 LAMSS” value was found to be 1 g ai/ha and the “GR80 LAMSS” value worked out at 1 g ai/ha. Further, in the assay on LAMSS (setting [7]), the pest or weed control at 35 g/ha fell in the range of 95 to 100% and the pest or weed control at 70 g/ha was 95 to 100%.
Turning to `COC(=O)c1nc(-c2ccc(Br)c(F)c2)nc(N)c1OC` [Compound 171, Methyl 6-amino-2-(4-bromo-3-fluorophenyl)-5-methoxypyrimidine-4-carboxylate], in assay [1] (Table 8, 21 d), the “GR50 VERPE” value is reported as 4 g ai/ha and the “GR80 VERPE” value came to 27 g ai/ha. In addition, in assay [1] (setting [6]), the pest or weed control at 35 g/ha is 85 to 94% and the pest or weed control at 70 g/ha was 85 to 94%. In the assay on LAMSS, the “GR50 LAMSS” value was 2 g ai/ha and the “GR80 LAMSS” value was 11 g ai/ha. Further, in the assay with LAMSS (setting [7]), the pest or weed control at 35 g/ha was 85 to 94% and the pest or weed control at 70 g/ha lay within 95 to 100%.
On to `COC(=O)c1nc(-c2ccc(I)c(F)c2)nc(N)c1OC` [Compound 27, Methyl 6-amino-2-(3-fluoro-4-iodophenyl)-5-methoxypyrimidine-4-carboxylate], for which, in assay [1] (Table 8, 21 d), the “GR50 VERPE” value is given as 5 g ai/ha and the “GR80 VERPE” value is reported as 42 g ai/ha. Besides, in assay [1] (setting [6]), the pest or weed control at 35 g/ha was in the range of 75 to 84% and the pest or weed control at 70 g/ha lay in the range of 85 to 94%. Also, in the assay with LAMSS, the “GR50 LAMSS” value is on record as 1 g ai/ha and the “GR80 LAMSS” value was 14 g ai/ha. In addition, in the assay with LAMSS (setting [7]), the pest or weed control at 35 g/ha was 85 to 94% and the pest or weed control at 70 g/ha fell in the range of 85 to 94%.
Consider `COC(=O)c1nc(-c2ccccc2F)c(F)c(N)c1Cl` [Compound 206], for which the pest or weed control at 4040 g/ha in assay [2] (4.04 kg ai/ha) was in the range of 0 to 29%; in assay [3] (4.04 kg ai/ha), 95 to 100%; in assay [4] (4.04 kg ai/ha) it was 75 to 84%; in assay [5] (4.04 kg ai/ha), 95 to 100%.
Take `Nc1c(Cl)c(C(=O)O)nc(-c2ccc(Br)c(F)c2)c1Cl` [Compound 43, 4-Amino-6-(4-bromo-3-fluorophenyl)-3,5-dichloropicolinic acid]: in assay [1] (Table 8, 21 d), the “GR50 VERPE” value is recorded as 33 g ai/ha and the “GR80 VERPE” value is listed as >140 g ai/ha. Further, in assay [1] (setting [6]), the pest or weed control at 35 g/ha was 30 to 44% and the pest or weed control at 70 g/ha was in the range of 75 to 84%. In addition, in the assay on LAMSS, the “GR50 LAMSS” value is listed as 1 g ai/ha and the “GR80 LAMSS” value was 10 g ai/ha. Moreover, in the assay on LAMSS (setting [7]), the pest or weed control at 35 g/ha lay within 85 to 94% and the pest or weed control at 70 g/ha was in the range of 85 to 94%.
For the molecule `COc1c(N)nc(-c2ccc(I)c(F)c2)nc1C(=O)O` [Compound 37, 6-Amino-2-(3-fluoro-4-iodophenyl)-5-methoxypyrimidine-4-carboxylic acid], in assay [1] (Table 8, 21 d), the “GR50 VERPE” value was determined as 15 g ai/ha and the “GR80 VERPE” value amounted to 66 g ai/ha. Besides, in assay [1] (setting [6]), the pest or weed control at 35 g/ha was 60 to 74% and the pest or weed control at 70 g/ha lay in the range of 75 to 84%. For the same molecule, in the assay on LAMSS, the “GR50 LAMSS” value turned out to be 1 g ai/ha and the “GR80 LAMSS” value was 11 g ai/ha. In addition, in the assay on LAMSS (setting [7]), the pest or weed control at 35 g/ha fell in the range of 85 to 94% and the pest or weed control at 70 g/ha lay within 95 to 100%.
With `C=Cc1c(C(=O)O)nc(-c2ccc(C(F)(F)F)c(F)c2)c(F)c1N` [Compound 86], in assay [1] (setting [8]), the pest or weed control at 35 g/ha was in the range of 85 to 94% and the pest or weed control at 70 g/ha was 85 to 94%. In assay [1] (21 days after application), the “GR50 VERPE” value came out at 15 g ai/ha and the “GR80 VERPE” value was found to be 34 g ai/ha.
Regarding `COC(=O)c1nc(-c2cccc(F)c2F)c(F)c(N)c1Cl` [Compound 199], the pest or weed control at 4000 g/ha in assay [2] (4 kg ai/ha) was 0 to 29%; in assay [3] (4 kg ai/ha), 60 to 74%; in assay [4] (4 kg ai/ha) it was 45 to 59%; in assay [5] (4 kg ai/ha) it was 75 to 84%.

These data come from US9113629B2, “4-amino-6-(4-substituted-phenyl)-picolinates and 6-amino-2-(4-substituted-phenyl)-pyrimidine-4-carboxylates and their use as herbicides” (DOW AGROSCIENCES LLC, priority 2013, dated 2015).
